The source of these data is publication PMC9737981, “Molecular Hybridization Strategy on the Design, Synthesis, and Structural Characterization of Ferrocene-N-acyl Hydrazones as Immunomodulatory Agents” (Molecules, 2022).

Series [1] deals with J774 macrophages. Description: Cytotoxicity to J774 macrophages (Alamar Blue). The series is classed as cell-based. Conditions: 72 h, read-out: CC50 (µM) JJ74. As for the experimental part: (§1) J774 macrophages were seeded into 96-well plates at a cell density of 1 × 10^4 cells/well in a DMEM medium supplemented with 10% fetal bovine serum (FBS; GIBCO) and 50 µg/mL of gentamicin (Life Technologies, Carlsbad, CA, USA) and incubated for 24 h at 37 °C and 5% CO2. After that time, each compound was added in six concentrations (50–1.56 µM), in triplicate, and incubated for 72 h. At the end of treatment, 20 µL/well of Alamar Blue (Invitrogen) was added to the plates for 4 h. […]
(§2) As a positive control, gentian violet was used at concentrations ranging from 0.04 to 10 µM. CC50 values were calculated using data from three independent experiments.
(§3) To determine the cytotoxicity concentration of 50% of J774 macrophages (CC50), we used non-linear regression. One-way analysis of variance and Newman–Keuls multiple comparison tests were employed by using Graph Pad Prism version 8.0.1 (Graph Pad Software; San Diego, CA, USA). Differences were considered significant when the values of p were < 0.05. The data are representative of at least two or three experiments.

The subject of series [2] is nitric oxide production. Description: Inhibition of nitric oxide (nitrite) production in J774 macrophages stimulated with LPS + IFN-γ (Griess). As to conditions: 24 h incubation with compounds and LPS plus IFN-γ. It counts as cell-based. The protocol: (§4) Immortalized J774 macrophages (2 × 10^5 cells/well) or peritoneal macrophages (2 × 10^5 cells/well) were incubated in 96-well plates in a DMEM medium supplemented with 10% FBS and 50 µg/mL of gentamicin, in triplicate, stimulated or not with LPS (500 ng/mL) and IFN-γ (5 ng/mL), and treated or not with different concentrations of the evaluated ferrocenyl-N-acyl hydrazones. The cells were incubated for 4 or 24 h at 37 °C and 5% CO2. Cell-free supernatants were collected after 4 h (for TNFα measurement) and 24 h (for IL-1β, TNFα, and nitrite quantifications), and kept at −80 °C until use.
(§5) The dosage of cytokines IFN-γ, IL-1β, IL-2, IL-4, and TNFα was performed from the supernatant of peritoneal macrophages or splenocytes were determined by enzyme-linked immunosorbent assay (ELISA), using DuoSet kits from R&D Systems, according to the manufacturer’s instructions. Nitric oxide production was estimated in macrophage culture supernatants harvested at 24 h using the Griess method for nitrite quantification.
A general note: Griess reagent forms a coloured azo dye with nitrite.

Series [3] concerns peritoneal macrophages. In words: Cytotoxicity to peritoneal macrophages activated with LPS + IFNγ (Alamar Blue). It counts as cell-based, BALB/c mice. As to conditions: all concentrations tested (10, 20, 40 µM). The protocol: The second set of experiments was performed using peritoneal macrophages activated with LPS (500 ng/mL, Sigma-Aldrich) and IFNγ (5 ng/mL; Sigma-Aldrich).
Peritoneal exudate macrophages were obtained by washing, with a cold DMEM medium, the peritoneal cavity of BALB/c mice 4–5 days after injection of 3% thioglycolate (Sigma-Aldrich) in saline (1.5 mL per mouse). Cells were seeded into 96-well plates at a cell density of 1 × 10^5 cells/well in a DMEM medium supplemented with 10% FBS and 50 µg/mL of gentamicin and incubated for 24 h at 37 °C and 5% CO2. […] At the end of treatment, 20 µL/well of Alamar Blue (Invitrogen) were added to the plates for 10 h. Colorimetric readings were performed at 570 and 600 nm using a SpectraMax 190 Microplate Reader (Molecular Devices, Sunnyvale, CA, USA).
Background: Resazurin is reduced to fluorescent resorufin, in cell work by metabolically active cells.

Series [4] deals with nitrite production. Description: Nitrite production by activated peritoneal macrophages (Griess). It counts as cell-based, BALB/c mice. As to conditions: 10, 20 and 40 µM; LPS + IFN-γ; p < 0.05. The protocol: as §4, §5
The test system of series [5] is TNFα. In words: TNFα production by peritoneal macrophages stimulated with LPS + IFN-γ (ELISA). It counts as cell-based, BALB/c mice. Conditions: 10, 20 and 40 µM, 4 h, p < 0.05. As for the experimental part:
as §4, §5
A general note: ELISA stands for enzyme-linked immunosorbent assay.

Series [6] concerns IL-1β. Description: IL-1β production by peritoneal macrophages stimulated with LPS + IFN-γ (ELISA). It counts as cell-based, BALB/c mice. Conditions: 10, 20 and 40 µM, 24 h, p < 0.05. As for the experimental part:
as §4, §5

The test system of series [7] is IL-2. In words: IL-2 production by splenocytes stimulated with concanavalin A (ELISA). It counts as cell-based, BALB/c mice. As to conditions: 10, 20, 40 µM; Con A 5 µg/mL; 24 h. As for the experimental part: (§6) BALB/c splenocyte suspensions were prepared in a DMEM medium supplemented with FBS and gentamicin. Splenocytes (5 × 10^6 cells/well) were plated in 24-well plates, in triplicate, and stimulated or not with concanavalin A (Con A; 5 µg/mL, Sigma-Aldrich). To evaluate lymphocyte function, splenocytes were activated in the absence or presence of various concentrations of SintMed149 and SintMed150 (10, 20, and 40 µM). After 24 h of treatment, cell-free supernatants were collected and kept at −80 °C until use.
as §5

Series [8] deals with IL-4. Description: IL-4 production by splenocytes stimulated with concanavalin A (ELISA). It counts as cell-based, BALB/c mice. As to conditions: 10, 20, 40 µM; Con A 5 µg/mL; 24 h. As for the experimental part: as §6, §5
The subject of series [9] is IFN-γ. Description: IFN-γ production by splenocytes stimulated with concanavalin A (ELISA). The series is classed as cell-based, BALB/c mice. Conditions: 10, 20, 40 µM; Con A 5 µg/mL; 24 h. As for the experimental part: as §6, §5
Series [10] can be described thus: Acute toxicity in mice (single oral dose). The series is classed as in vivo, BALB/c mice. Conditions: for Changes in the eyes / Changes in the fur / Changes in the skin / Coma / Convulsions / Diarrhea / Lethargy / Salivation / Sleep / Tremors: observed daily for 14 days; for Mortality or signs of toxicity: 2 weeks. The protocol:
Male BALB/c mice (6–8 weeks of age; n = 6/group) were randomized into three groups and treated orally with a single dose of SintMed150 (50 or 100 mg/kg) or vehicle (solution containing 30% sorbitol, 10 % Tween 80, and 60% saline). Animals were monitored for signs of general toxicity for 2 weeks after treatment. Observations involved changes in eyes, fur, and skin, and the occurrence of tremors, salivation, convulsions, diarrhea, sleep, lethargy, and coma. Body weights were taken and recorded at days 0, 7, and 14.

Series [11] has as its system LPS-induced endotoxic shock. In words: LPS-induced endotoxin shock (survival). It counts as in vivo, BALB/c mice. The protocol: Groups of five male BALB/c mice (4 weeks of age) were used for the LPS lethality assays. Mice were treated with different doses of SintMed150 (50 or 100 mg/kg), dexamethasone (25 mg/kg), or vehicle (solution containing 30% sorbitol, 10% Tween 80, and 60% saline), by intraperitoneal (i.p.) route. Ninety minutes later, animals were challenged with 600 µg of LPS (from serotype 0111:B4 Escherichia coli, Sigma-Aldrich) in saline, by i.p. route. The survival rate was then monitored daily during 4 days.

Series [12] concerns carrageenan-induced acute peritonitis. Description: Carrageenan-induced acute peritonitis (neutrophil migration). The series is classed as in vivo, BALB/c mice. As to conditions: 100 mg/kg orally 24 and 1 h before carrageenan; compared to vehicle. The protocol:
Next, animals were challenged with a 250 μL injection of carrageenan (1 mg/mL; intraperitoneal route). After 4 h, animals were euthanized and peritoneal exudates were harvested by peritoneal lavage using 2.5 mL of saline solution. Cells were centrifuged at 400× g for 10 min, at 4 °C. The pellet was resuspended in saline (1 mL). Total leukocytes in the peritoneal fluid were determined in a Neubauer chamber after dilution in Trypan blue stain. Differential counting of neutrophils was carried out in rapid panotype-stained cytospin preparations. A differential count of 300 cells was made in a blinded fashion and according to standard morphologic criteria.

A short description of series [13]: Cytotoxicity to J774 macrophages (Alamar Blue). It counts as cell-based. Conditions: mouse, read-out: CC50 (µM) JJ74. The protocol:
as §1, §2, §3

Usually CC50 stands for the concentration giving 50% cytotoxicity. As to `O=C(N/N=C/[c-]1cccc1)c1ccccc1Oc1ccccc1.[Fe+2].c1cc[cH-]c1` [SintMed150, (E)-N′-(Ferrocenylmethylidene)-2-phenoxybenzohydrazide], the CC50 in series [1] was above 50 µM. The “Inhibition of NO (%) Production at 40 μM” value in series [2] is reported as 74.2 (±0.7) %. Moreover, in series [3], the “Cytotoxicity (cell viability) in peritoneal macrophages” value is reported as “not cytotoxic”. Also, the Nitrite production entry in [4] is “inhibited, in a concentration-dependent manner”. For the same molecule, the TNF production result in series [5] is “inhibitory effect”. For the same molecule, the IL-1β production entry in [6] is “inhibitory effect”. Moreover, in [7], the IL-2 levels result is “significant and concentration-dependent reduction”. Further, in series [8], the IL-4 levels entry is “did not significantly reduce”. For the same molecule, in series [9], the IFN-γ levels result is recorded as “performed the same feat”. Also, in series [10] (50 mg/kg single oral dose), the “Changes in the eyes” value was “No changes”, the “Changes in the fur” value is “No changes”, the “Changes in the skin” value is “No changes” and the Coma result is given as “Absent”. In series [10] (50 mg/kg single oral dose), the Convulsions entry is “Absent”, the Diarrhea result was “Absent”, the Lethargy entry is listed as “Absent” and the Salivation entry is “Absent”. In series [10] (50 mg/kg single oral dose), the Sleep result is given as “Usual” and the Tremors entry is “Absent”. The Body weight in series [10] (50 mg/kg, day 0) was 20.9 (±1.1). In addition, the Body weight in series [10] (50 mg/kg, day 7) is listed as 21.1 (±1.1). In addition, the Body weight in series [10] (50 mg/kg, day 14) was 21.7 (±0.9). Besides, in series [10] (100 mg/kg single oral dose), the “Changes in the eyes” value is given as “No changes”, the “Changes in the fur” value is “No changes”, the “Changes in the skin” value is listed as “No changes” and the Coma entry is listed as “Absent”. In addition, in series [10] (100 mg/kg single oral dose), the Convulsions result is reported as “Absent”, the Diarrhea entry is “Absent”, the Lethargy entry is “Absent” and the Salivation result was “Absent”. For the same molecule, in series [10] (100 mg/kg single oral dose), the Sleep result is “Usual” and the Tremors result is “Absent”. Besides, in [10] (100 mg/kg, day 0), the Body weight is reported as 20.1 (±0.8). The Body weight in [10] (100 mg/kg, day 7) is 20.4 (±0.7). Moreover, the Body weight in series [10] (100 mg/kg, day 14) is 21.0 (±0.7). Further, the “Mortality or signs of toxicity” value in series [10] (single oral dose 50 mg/kg) is “did not cause mortality or the appearance of any sign of toxicity”. Also, in series [10] (single oral dose 100 mg/kg), the “Mortality or signs of toxicity” value is “did not cause mortality or the appearance of any sign of toxicity”. The “Body weight compared to vehicle-treated mice” value in [10] (single oral dose 50 or 100 mg/kg) is recorded as “no difference in body weight”. Further, in [11] (50 mg/kg, third day after lethal LPS), the Survival entry is given as “already died”. In series [11] (100 mg/kg, fourth day after lethal LPS, p < 0.05), the Survival is 20%. In [11] (50 or 100 mg/kg, lethal LPS), the “Survival time in comparison with the vehicle group” value is on record as “longer survival time”. Further, in series [12], the “Reduction in neutrophil migration” value was found to be 44.6%.

For the molecule `CN(C)c1ccc(C(=C2C=CC(=[N+](C)C)C=C2)c2ccc(N(C)C)cc2)cc1` [GV, gentian violet, reference compound], the cytotoxic concentration (CC50) at 72 h in series [13] worked out at 0.8 µM.
